Data as given in PMC10067098 (Cancer Medicine, 2023).

Test: plasma pharmacokinetics, non‐compartmental analysis
Format: in vivo, human
Conditions: Day 1 in Cycle 1 or Day 1 in Cycle 2; data not shown
Method: In addition, trough plasma concentration (C trough) was measured on Day 7 in Cycle 0, and Day 1 in Cycles 1 and 2.
TEAEs were tabulated by system organ class (SOC) and preferred term (PT). For the other safety and PK endpoints, continuous data were described by mean and standard deviation (SD), median and range, and categorical data were summarized by frequency. The proportionality of the PK parameters, C max and AUC10h, was evaluated using a power model (see Table 4). For the efficacy endpoints, best overall response was tabulated as a frequency table, and the time‐to‐event data such as duration of response, PFS, and OS was evaluated using Kaplan–Meier method. All analyses were conducted using SAS® Version 9.4 (SAS Institute).

mean C max and AUC among cohorts: no specific pattern was observed
Compound: COc1cc2ncnc(Nc3ccc(F)c(Cl)c3)c2cc1OCCCN1CCOCC1 [gefitinib]
